Experimental findings from ChEMBL document CHEMBL1129860, “Studies on penam sulfones III. Synthesis and -lactamase inhibitory activity of sodium (6R)-6-(-hydroxybenzyl)-2-methoxyiminomethyl-2-methylpenam-3-carboxylate 1,1-dioxide and sodium 2-acyl-2-methylpenam-3-carboxylate 1,1-dioxide” (1997) are described below.

The structures appear in SMILES notation.

Assay [1] has as its system Enterobacter cloacae. Kind of assay: In vitro minimal inhibitory concentration (MIC) of compound in combination with Ceftazidime (CAZ) showed synergic activity against Enterobacter cloacae S-11. The assay is classed as functional.
Assay [2] concerns Pseudomonas aeruginosa. Briefly: microbe, parasite or virus in culture.
Assay [3] concerns Klebsiella aerogenes. Kind of assay: In vitro minimal inhibitory concentration (MIC) of compound in combination with Ceftazidime (CAZ) showed synergic activity against Enterobacter aerogenes S-97. The assay is classed as functional.
Assay [4] has as its system Morganella morganii. Briefly: In vitro minimal inhibitory concentration (MIC) of compound in combination with Ceftazidime (CAZ) showed synergic activity against Morganella morganii 36014. The assay is classed as functional. As to conditions: Morganella morganii; read-out: MIC.
Assay [5] concerns Enterobacter cloacae. Briefly: In vitro minimal inhibitory concentration (MIC) of compound in combination with Ceftazidime (CAZ) showed synergic activity against Enterobacter cloacae S-65. The assay is classed as functional.
Assay [6] has as its system Morganella morganii. Briefly: In vitro minimal inhibitory concentration (MIC) of compound in combination with Ceftazidime (CAZ) showed synergic activity against Morganella morganii 36030. The assay is classed as functional.
Assay [7] concerns Pseudomonas aeruginosa. Briefly: microbe, parasite or virus in culture. This is another data set of the same source.
For the next assay, the system named is Proteus vulgaris. Kind of assay: In vitro minimal inhibitory concentration (MIC) of compound in combination with piperacillin (PIPC) showed synergic activity against Proteus vulgaris CT 106. The assay is classed as functional.
Assay [8] deals with Escherichia coli. Kind of assay: In vitro minimal inhibitory concentration (MIC) of compound in combination with piperacillin (PIPC) showed synergic activity against Escherichia coli TEM 7. The assay is classed as functional.
Assay [9] deals with Enterobacter cloacae. Kind of assay: In vitro minimal inhibitory concentration (MIC) of compound in combination with piperacillin (PIPC) showed synergic activity against Enterobacter cloacae P99. The assay is classed as functional.
Assay [10] has as its system Klebsiella aerogenes. Briefly: In vitro minimal inhibitory concentration (MIC) of compound in combination with piperacillin (PIPC) showed synergic activity against Enterobacter aerogenes 41003. The assay is classed as functional.
Assay [11] deals with Escherichia coli. Kind of assay: In vitro minimal inhibitory concentration (MIC) of compound in combination with piperacillin (PIPC) showed synergic activity against Escherichia coli TEM 3. The assay is classed as functional.
Assay [12] has as its system Citrobacter freundii. Kind of assay: In vitro minimal inhibitory concentration (MIC) of compound in combination with piperacillin (PIPC) showed synergic activity against Citrobacter freundii 2046E. The assay is classed as functional.
The subject of assay [13] is Klebsiella aerogenes. Kind of assay: In vitro minimal inhibitory concentration (MIC) of compound in combination with piperacillin (PIPC) showed synergic activity against Enterobacter aerogenes 41006. The assay is classed as functional.
Assay [14] deals with Staphylococcus aureus. Briefly: In vitro minimal inhibitory concentration (MIC) of compound in combination with piperacillin (PIPC) showed synergic activity against Staphylococcus aureus 80K. The assay is classed as functional.
The subject of assay [15] is Escherichia coli. Briefly: In vitro minimal inhibitory concentration (MIC) of compound in combination with piperacillin (PIPC) showed synergic activity against Escherichia coli SHV 5. The assay is classed as functional.
The test system of assay [16] is Enterobacter cloacae. Briefly: In vitro minimal inhibitory concentration (MIC) of compound in combination with piperacillin (PIPC) showed synergic activity against Enterobacter cloacae 40011. The assay is classed as functional.
In assay [17] the test system is Pseudomonas aeruginosa. Kind of assay: In vitro minimal inhibitory concentration (MIC) of compound in combination with piperacillin (PIPC) showed synergic activity against Pseudomonas aeruginosa 46220 (DR-2). The assay is classed as functional.
The subject of assay [18] is Escherichia coli. Kind of assay: In vitro minimal inhibitory concentration (MIC) of compound in combination with piperacillin (PIPC) showed synergic activity against Escherichia coli SHV 1. The assay is classed as functional.
Assay [19] relates to Staphylococcus aureus. Briefly: In vitro minimal inhibitory concentration (MIC) of compound in combination with piperacillin (PIPC) showed synergic activity against Staphylococcus aureus 54K. The assay is classed as functional.
In assay [20] the test system is Escherichia coli. Kind of assay: In vitro minimal inhibitory concentration (MIC) of compound in combination with piperacillin (PIPC) showed synergic activity against Escherichia coli OXA 3. The assay is classed as functional.
In assay [21] the test system is Morganella morganii. Kind of assay: In vitro minimal inhibitory concentration (MIC) of compound in combination with piperacillin (PIPC) showed synergic activity against Morganella morganii 36014. The assay is classed as functional.
The subject of assay [22] is Escherichia coli. Briefly: In vitro minimal inhibitory concentration (MIC) of compound in combination with piperacillin (PIPC) showed synergic activity against Escherichia coli OXA 1. The assay is classed as functional.
For assay [23], the system named is Enterobacter cloacae. Kind of assay: In vitro minimal inhibitory concentration (MIC) of compound in combination with piperacillin (PIPC) showed synergic activity against Enterobacter cloacae 40015. The assay is classed as functional.
The subject of assay [24] is Citrobacter freundii. Briefly: In vitro minimal inhibitory concentration (MIC) of compound in combination with piperacillin (PIPC) showed synergic activity against Citrobacter freundii 44032. The assay is classed as functional.
Another assay relates to Klebsiella pneumoniae. Briefly: In vitro minimal inhibitory concentration (MIC) of compound in combination with piperacillin (PIPC) showed synergic activity against Klebsiella pneumoniae CTX 1. The assay is classed as functional.
Assay [25] deals with Klebsiella aerogenes. Briefly: In vitro minimal inhibitory concentration (MIC) of compound in combination with piperacillin (PIPC) showed synergic activity against Enterobacter aerogenes 41004. The assay is classed as functional.
Another assay deals with Serratia marcescens. Kind of assay: In vitro minimal inhibitory concentration (MIC) of compound in combination with piperacillin (PIPC) showed synergic activity against Serratia marcescens 200 L. The assay is classed as functional.

With `CC(C)(O/N=C(\C(=O)NC1C(=O)N2C(C(=O)[O-])=C(C[n+]3ccccc3)CSC12)c1csc(N)n1)C(=O)O.CO/N=C/[C@@]1(C)[C@H](C(=O)[O-])N2C(=O)[C@@H]([C@@H](O)c3ccccc3)[C@H]2S1(=O)=O.[Na+]` (stereo not given), the MIC was less than 0.25 µg/mL in the assay with Enterobacter cloacae [1]; 16 µg/mL against Pseudomonas aeruginosa [2]; 4 µg/mL in the assay on Klebsiella aerogenes [3]; 2 µg/mL in the assay on Morganella morganii [4]; less than 0.25 µg/mL in the assay with Enterobacter cloacae [5]; 1 µg/mL in the assay on Morganella morganii [6]. Further, the MIC in the assay on Pseudomonas aeruginosa [7] turned out to be 32 µg/mL.

As for `CC(=O)[C@@]1(C)[C@H](C(=O)[O-])N2C(=O)CC2S1(=O)=O.CCN1CCN(C(=O)NC(C(=O)N[C@@H]2C(=O)N3[C@@H]2SC(C)(C)[C@@H]3C(=O)O)c2ccccc2)C(=O)C1=O.[Na+]` (stereo not given in full), the MIC was determined as 25 µg/mL in the assay with Proteus vulgaris; 1.56 µg/mL in the assay on Escherichia coli [8]; 12.5 µg/mL in the assay with Enterobacter cloacae [9]; 3.13 µg/mL with Klebsiella aerogenes [10]; 3.13 µg/mL in the assay with Escherichia coli [11]; 1.56 µg/mL in the assay on Citrobacter freundii [12]. The MIC with Klebsiella aerogenes [13] amounted to 12.5 µg/mL; with Staphylococcus aureus [14] it was 3.13 µg/mL; in the assay on Escherichia coli [15], 1.56 µg/mL; in the assay on Enterobacter cloacae [16] it was 6.25 µg/mL; with Pseudomonas aeruginosa [17] it was 6.25 µg/mL; in the assay with Escherichia coli [18], 3.13 µg/mL. The MIC in the assay with Staphylococcus aureus [19] was 6.26 µg/mL; in the assay on Escherichia coli [20] it was 1.56 µg/mL; in the assay on Morganella morganii [21] it was 0.39 µg/mL; with Escherichia coli [22], 1.56 µg/mL; in the assay on Enterobacter cloacae [23], 25 µg/mL; in the assay on Citrobacter freundii [24] it was 12.5 µg/mL. In addition, the MIC with Klebsiella pneumoniae stood at 12.5 µg/mL; in the assay with Klebsiella aerogenes [25], 6.25 µg/mL; in the assay with Serratia marcescens, 3.13 µg/mL.

On to `CC(C)(O/N=C(\C(=O)NC1C(=O)N2C(C(=O)[O-])=C(C[n+]3ccccc3)CSC12)c1csc(N)n1)C(=O)O.CO/N=C/[C@@]1(C)[C@H](C(=O)[O-])N2C(=O)CC2S1(=O)=O.[Na+]` (stereo not given), for which the MIC was less than 0.25 µg/mL in the assay on Enterobacter cloacae [1]; 16 µg/mL in the assay on Pseudomonas aeruginosa [2]; 0.5 µg/mL in the assay on Klebsiella aerogenes [3]; less than 0.25 µg/mL with Morganella morganii [4]; less than 0.25 µg/mL in the assay with Enterobacter cloacae [5]; less than 0.25 µg/mL in the assay with Morganella morganii [6]. The molecule further returned an MIC with Pseudomonas aeruginosa [7] of 32 µg/mL.
